These results are taken from paper PMC6214853, “Cytotoxic, tubulin-interfering and proapoptotic activities of 4′-methylthio-trans-stilbene derivatives, analogues of trans-resveratrol” (Cytotechnology, 2018).

Structures are written as SMILES. Values joined by “and” are separate entries in the source; they are usually repeats but may differ in a detail not shown here. Equal entries are not always repeated.

Broadly, the IC50 is the point on the concentration scale where inhibition reaches its midpoint.

Assay [1] concerns A431 cells. Description: MTT cell viability assay, A431. Conditions: Homo sapiens, A-431, A431, 48 h treatment. Format: cell-based. As to the method: (§1) Spontaneously immortalized human keratinocyte HaCaT cells were purchased from Cell Lines Service (CLS, Eppelheim, Germany). Human epidermoid carcinoma A431 cells were obtained from Deutsche Sammlung von Mikroorganismen und Zellkulturen (DSMZ, Braunschweig, Germany). MCF7 (ECACC 86012803) and MCF12A (ECACC10782) cells were purchased from the European Collection of Cell Cultures (Salisbury, Wiltshire, UK). MCF12A cells were cultured in 95% 1:1 mixture of DMEM and Ham’s F12 medium, 20 ng/mL human epidermal growth factor, 500 ng/mL hydrocortisone and 5% horse serum. The other cell lines were cultured in Dulbecco’s modified Eagle’s medium (DMEM) supplemented with 10% fetal bovine serum and 1% (v/v) antibiotics solution. Cells were incubated at 37 °C in an atmosphere consisting of 95% air and 5% CO2 in a humidified incubator until they reached 70% confluency. 1 × 10^6 cells were seeded in 40 mm ø culture dishes. After 24 h of preincubation in DMEM containing 5% of FBS, the cells were treated with resveratrol or its analogs, and the incubation was continued for a subsequent 24 h to assess apoptosis or cell cycle distribution. Then, the cells were harvested. Control cells were treated with DMSO, at a concentration of less than 0.1%.
(§2) The effect of resveratrol and 4′-methylthiostilbenes on cell viability was assessed with MTT assay according to the standard protocol described earlier (Zielińska-Przyjemska et al. [2015]). Briefly, the cells were seeded in 96-well plates at a density of 1 × 10^4 cells/well in 100 μL of growth medium. They were allowed to attach overnight and either resveratrol or the appropriate analog was then added to the culture medium at various concentrations (0–200 μM) for 48 h at 37 °C. The cells were subsequently incubated with MTT (0.5 mg/mL) solution for another 4 h. The water insoluble formazan crystals were solubilized in acidic isopropanol before the measurement of absorbance using a microplate reader (TECAN Infinite M200, TK Biotech, Warsaw, Poland) at 540 and 690 nm. All of the experiments were repeated three times, with at least three measurements per assay.

Assay [2] deals with MCF7 cells. Briefly: MTT cell viability assay, MCF7. Format: cell-based, human. Particulars: MCF7, 48 h treatment. The method, then:
as §1, §2
(Tetrazolium dyes change colour on reduction, which living cells bring about.)

Assay [3] concerns HaCaT cells. Briefly: MTT cell viability assay, HaCaT. Format: cell-based. Particulars: Homo sapiens, 48 h treatment. The method, then: as §1, §2
For the next assay, the target named is T1, purified porcine tubulin (Sus scrofa, UniProt P02554).
T1 construct: purified porcine tubulin purchased from Cytoskeleton Inc; purchased Cytoskeleton Inc. (Denver, CO, USA)
T1 sequence (P02554 whole entry): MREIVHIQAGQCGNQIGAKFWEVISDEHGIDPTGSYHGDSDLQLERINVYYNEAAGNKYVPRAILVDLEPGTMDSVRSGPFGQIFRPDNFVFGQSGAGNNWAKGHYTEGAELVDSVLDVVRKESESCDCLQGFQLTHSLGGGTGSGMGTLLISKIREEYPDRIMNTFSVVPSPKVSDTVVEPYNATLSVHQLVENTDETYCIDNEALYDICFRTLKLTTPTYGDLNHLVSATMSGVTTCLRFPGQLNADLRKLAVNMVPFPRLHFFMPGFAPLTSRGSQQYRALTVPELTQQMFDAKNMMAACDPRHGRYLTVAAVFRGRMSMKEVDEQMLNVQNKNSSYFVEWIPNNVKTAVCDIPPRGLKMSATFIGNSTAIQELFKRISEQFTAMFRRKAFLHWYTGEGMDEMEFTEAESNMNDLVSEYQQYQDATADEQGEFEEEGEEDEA
T1 sequence (P02550 whole entry partner): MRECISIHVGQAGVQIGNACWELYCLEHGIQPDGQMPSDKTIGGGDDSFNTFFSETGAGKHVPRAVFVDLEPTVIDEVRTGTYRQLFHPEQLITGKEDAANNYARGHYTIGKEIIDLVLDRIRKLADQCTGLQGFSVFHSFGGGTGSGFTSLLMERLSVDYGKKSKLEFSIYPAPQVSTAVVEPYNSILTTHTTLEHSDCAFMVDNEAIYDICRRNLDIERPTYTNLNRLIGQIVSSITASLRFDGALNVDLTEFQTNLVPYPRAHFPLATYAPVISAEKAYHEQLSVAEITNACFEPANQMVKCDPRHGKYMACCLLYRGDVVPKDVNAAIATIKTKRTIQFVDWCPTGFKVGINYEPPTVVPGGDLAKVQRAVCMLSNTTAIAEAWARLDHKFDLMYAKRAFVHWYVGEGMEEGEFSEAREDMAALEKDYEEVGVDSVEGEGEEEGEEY
Briefly: Tubulin polymerization assay in vitro. Format: biochemical. Particulars: absorbance at steady state. As to the method: Tubulin polymerization was assessed with the use of purified porcine tubulin purchased from Cytoskeleton Inc. (Denver, CO, USA) in accordance with a protocol recommended by the manufacturer. Tubulin was dissolved in a buffer containing: 80 mM PIPES pH 6.9, 2 mM MgCl2, 0.5 mM EGTA and 1 mM GTP, at a final concentration of 3 mg/mL and placed in a 96-well plate (0.3 mg per well). The polymerization reaction was started by increasing temperature from 4 to 37 °C upon transfer of the reaction mixture to a pre-warmed plate. The assembly of microtubules was monitored spectrophotometrically by measuring absorbance at 350 nm for 60 min, at a temperature of 37 °C. Paclitaxel was used as stabilizing positive control.

The subject of assay [4] is A431 cells. Description: Flow cytometry cell cycle analysis, A431. Format: cell-based, human. Particulars: A431, 24 h incubation, PI flow cytometry. The method, then:
as §1, with “Control cells were treated with DMSO, at a concentration of less than 0.1%.” left out
(§3) The cells harvested after a 24 h incubation with the test compounds were washed with 1 mL of PBS and fixed with 70% ethanol. […] The stained cells were analyzed by FACSCanto Flow Cytometer (Becton–Dickinson). […]
Background: Flow cytometry measures light scatter and fluorescence of single cells or particles in a stream.

Assay [5] concerns MCF12A cells. Briefly: MTT cell viability assay, MCF12A. It is filed as cell-based. Conditions: Homo sapiens, MCF-12A, 48 h treatment. As to the method:
as §1, §2

The subject of assay [6] is MCF7 cells. Description: Flow cytometry cell cycle analysis, MCF7. Format: cell-based, human. Particulars: MCF7, 24 h incubation, PI flow cytometry. The method, then:
as §1
(§4) The cells harvested after a 24 h incubation with the test compounds were washed with 1 mL of PBS and fixed with 70% ethanol. The ethanol was added dropwise to the cell pellet while vortexing to ensure fixation of all cells and minimizing clumping. After a 30 min incubation, the cells were washed twice in PBS, and 250 µL of a solution containing 50 µg/mL PI, 100 µg/mL RNase A (Sigma, St. Louis, MO, USA) in PBS was added to the pellet and incubated for 30 min at 37 °C in the dark. The stained cells were analyzed by FACSCanto Flow Cytometer (Becton–Dickinson). Camptothecin at a final concentration of 50 nM was used as a positive control. Data analysis and acquisition were performed using FACS Diva software (Becton–Dickinson).

In assay [7] the test system is MCF12A cells. Description: Flow cytometry cell cycle analysis, MCF12A. Particulars: 24 h incubation, PI flow cytometry. Format: cell-based, human. The method, then: as §1, §4
Assay [8] has as its system MCF12A, MCF7, HaCaT and A431 cell lines. Description: TUNEL assay. Format: cell-based, human. Conditions: 24 h incubation, versus control. As to the method:
as §1
TUNEL assay was applied to detect apoptotic cells using In Situ Cell Death Detection Kit (Roche Diagnostics, Indianapolis, IN, USA). Briefly, after incubation with the test compounds for 24 h, the cells were detached with a 0.5% trypsin–EDTA solution and collected. Cell suspensions were fixed with 4% paraformaldehyde and permeabilized with 0.1% Triton X-100 in 0.1% sodium citrate. After the TUNEL reaction mixture was added, cells were incubated for 1 h at 37 °C in a humidified chamber and samples were analyzed by FACSCanto Flow Cytometer (Becton–Dickinson). Camptothecin at a final concentration of 50 nM was used as a positive control.

Assay [9] has the same test system. Briefly: Annexin-V/propidium iodide assay. It is filed as cell-based, human. Particulars: 24 h incubation, all four cell lines. The method, then: as §1
Apoptosis and necrosis were detected using Annexin-V-FLUOS Staining Kit assay (Roche Diagnostics GmbH, Mannheim, Germany), according to the manufacturer’s instruction. After have been treated with test compounds for 24 h, the cells were transferred (1 × 10^6 cells in 100 µL of the solution) into 5 mL culture tubes followed by the addition of 2 µL of Annexin-V-Fluos and 2 µL PI. Camptothecin at a final concentration of 50 nM was used as a positive control. Samples were gently mixed and incubated for 15 min at RT (25 °C) in the dark. Fluorescence of cell surface (AV) and DNA-bound PI markers was analyzed with flow cytometry (Becton–Dickinson, San Jose, CA, USA) at 488 nm excitation wavelength, emission 518 and 617 nm for AV and PI, respectively.

The next assay deals with tubulin. Also noted: method as in Ma and coworkers ([2008]). Conditions: ref Ma and coworkers ([2008]), cited from earlier work.
Assay [10] relates to HaCaT cells. Briefly: Flow cytometry cell cycle analysis, HaCaT. Format: cell-based, human. Conditions: 24 h incubation, PI flow cytometry. The method, then:
as §1, with “Control cells were treated with DMSO, at a concentration of less than 0.1%.” left out
as §3

Assay [11] relates to MCF7 cells. Also noted: method as in Androutsopoulos et al. [2011]. Particulars: 96 h exposure; ref Androutsopoulos et al. [2011]; cited from earlier work.

In the case of `COc1cccc(/C=C/c2ccc(SC)cc2)c1OC` [2,3-Dimethoxy-4′-methylthio-trans-stilbene], the IC50 stood at 157 ± 3 µM in the assay with A431 cells [1]; 10.6 ± 6.1 µM in the assay with MCF7 cells [2] (Homo sapiens, MCF7, 48 h); 51.8 ± 7.3 µM in the assay on HaCaT cells [3].

In the case of `CC(=O)O[C@H]1C(=O)[C@@]2(C)[C@H]([C@H](OC(=O)c3ccccc3)[C@]3(O)C[C@H](OC(=O)[C@H](O)[C@@H](NC(=O)c4ccccc4)c4ccccc4)C(C)=C1C3(C)C)[C@]1(OC(C)=O)CO[C@@H]1C[C@@H]2O` [Paclitaxel, reference compound], the “Tubulin polymerization, steady state level” value at purified porcine tubulin (10 µM compound) is 142.3 % of control and 142.3 ± 9.2 % of control.

Turning to `COc1cc(/C=C/c2ccc(SC)cc2)cc(OC)c1` [3,5-Dimethoxy-4′-methylthio-trans-stilbene], the concentration for half-maximal inhibition (IC50) was 45.4 ± 7.2 µM in the assay with A431 cells [1]; 4.8 ± 3.4 µM in the assay with MCF7 cells [2] (Homo sapiens, MCF7, 48 h); 25.4 ± 13.9 µM in the assay with HaCaT cells [3].

For the compound `COc1cc(/C=C/c2ccc(SC)cc2)cc(OC)c1OC` [3,4,5-MTS, 3,4,5-Trimethoxy-4′-methylthio-trans-stilbene], the IC50 worked out at 19.3 ± 5.5 µM in the assay with A431 cells [1]; 25.7 ± 4.3 µM with MCF12A cells [5]; 2.07 µM in the assay with MCF7 cells [2] (Homo sapiens, MCF7, 48 h); 2.1 ± 0.4 µM in the assay with MCF7 cells [2]; 10 ± 4.6 µM with HaCaT cells [3]. The Cell cycle effect entry in the assay with A431 cells [4], with MCF7 cells [6] and with MCF12A cells [7] was “G2/M phase arrest” in each case. In addition, the “Number of TUNEL positive cells” value in assay [8] is “statistically significant increase in the number of TUNEL positive cells was observed only in HaCaT and A431”. Also, the “Tubulin polymerization, steady state level” value at purified porcine tubulin (5 µM compound) is 113.4 ± 3.6 % of control; at purified porcine tubulin (10 µM compound), 132.9 % of control and 132.9 ± 17.1 % of control. Besides, the “Apoptosis induction (Annexin-V/PI)” value in assay [9] is recorded as “induced apoptosis in all the cell lines”.

For `COc1ccccc1/C=C/c1ccc(SC)cc1` [2-Methoxy-4′-methylthio-trans-stilbene], the IC50 in the assay with A431 cells [1] came out at 241 ± 10 µM; in the assay with MCF7 cells [2] (Homo sapiens, MCF7, 48 h), 27.3 ± 12.4 µM; in the assay on HaCaT cells [3], 106 ± 9.3 µM.

With `COc1ccc(OC)c(/C=C/c2ccc(SC)cc2)c1` [2,5-Dimethoxy-4′-methylthio-trans-stilbene], the IC50 in the assay on A431 cells [1] turned out to be 47.1 ± 9 µM; with MCF7 cells [2] (Homo sapiens, MCF7, 48 h), 10.2 ± 6.6 µM; in the assay on HaCaT cells [3], 65 ± 24.5 µM.

As for `Oc1ccc(/C=C/c2cc(O)cc(O)c2)cc1` [Resveratrol, trans-3,4′,5-trihydroxystilbene], the IC50 in the assay on A431 cells [1] amounted to 49.4 ± 3.8 µM; in the assay on MCF12A cells [5], 93.5 ± 12.1 µM; in the assay with MCF7 cells [2] (Homo sapiens, MCF7, 48 h), 24.6 ± 3.8 µM; in the assay on HaCaT cells [3] it was 85.2 ± 29.2 µM. Further, the Cell cycle effect result in the assay on A431 cells [4] is on record as “blocked the cell cycle in S-phase”; in the assay with MCF7 cells [6], “blocked the cell cycle in S-phase”; in the assay with MCF12A cells [7], “blocked the cell cycle in S-phase”; in the assay with HaCaT cells [10], “arrested in G0/G1-phase”. Moreover, in the assay with tubulin, the “Effect on tubulin polymerization” value is “does not influence tubulin polymerization”. In addition, the “Number of TUNEL positive cells” value in assay [8] is listed as “statistically significant in all the cell lines studied”. In assay [9], the “Apoptosis induction (Annexin-V/PI)” value is recorded as “apoptosis was evident in all the tested cell lines”.

In the case of `COc1ccc(/C=C/c2cc(OC)c(OC)c(OC)c2)cc1` [DMU-212, 3,4,5,4′-trans-tetramethoxystilbene], the “Effect on microtubule polymerization” value with tubulin (DMU-212 at 2.5 μM versus paclitaxel at 10 μM) is “comparable to that of paclitaxel”. Besides, in the assay with MCF7 cells [11], the “Toxicity in MCF7 cells” value was “submicromolar toxicity”.

On to `COc1cc(OC)c(OC)cc1/C=C/c1ccc(SC)cc1` [2,4,5-MTS, 2,4,5-Trimethoxy-4′-methylthio-trans-stilbene], for which the IC50 turned out to be 22.6 ± 7.2 µM with A431 cells [1]; 10 ± 3 µM with MCF12A cells [5]; 5.1 ± 1.4 µM in the assay on MCF7 cells [2] (Homo sapiens, MCF7, 48 h); 50.9 ± 13.3 µM with HaCaT cells [3]. Also, the Cell cycle effect entry with MCF7 cells [6] and with MCF12A cells [7] was “G0/G1 phase arrest” each time. Besides, in assay [8], the “Number of TUNEL positive cells” value is “statistically significant increase in the number of TUNEL positive cells was observed only in HaCaT and A431”. In addition, the “Tubulin polymerization, steady state level” value at purified porcine tubulin (5 µM compound) is 106.3 ± 4.2 % of control; at purified porcine tubulin (10 µM compound), 123.2 % of control and 123.2 ± 4.5 % of control. The “Apoptosis induction (Annexin-V/PI)” value in [9] is on record as “induced apoptosis in all the cell lines”.

For the compound `COc1cccc(/C=C/c2ccc(SC)cc2)c1` [3-Methoxy-4′-methylthio-trans-stilbene], the IC50 in the assay on A431 cells [1] worked out at 141 ± 2.8 µM; in the assay on MCF7 cells [2] (Homo sapiens, MCF7, 48 h) it was 6.6 ± 3.7 µM; in the assay on HaCaT cells [3], 183 ± 38.7 µM.
